According to patent publication US11613546B2, “Substituted pyridotriazine compounds and uses thereof” (Gilead Sciences, Inc., priority 2021, dated 2023):
Like-named read-outs stand apart in the source and are kept apart here.

Legend:
Format in all cases: cell-based
pLai RLuc reporter virus = test: HIV MT-4 serum shift antiviral reporter assay; conditions: Human immunodeficiency virus 1, 72 h
Description: To quantify the amount of protein binding to human serum, compounds were serially diluted (1:3) in DMSO and acoustically transferred onto 384-well assay plates via a Labcyte ECHO robot. Each plate contained up to 8 test compounds, including negative and positive controls, (DMSO, 5 μM AZT respectively). Assay plates were prepared in duplicate, and tested in either CCM (cell culture media) or HS/CCM (human serum/cell culture media). MT-4 cells were first pre-infected with pLai RLuc reporter virus for 2 h at 37° C., then further diluted in either CCM (RPMI media, 10% FBS, 1% P/S) or HS/CCM (RPMI media, 10% FBS, 50% HS, 1% P/S), and subsequently added to each plate using a Biotek Micro Flow dispenser. After a 72-h incubation in a humidified and temperature controlled incubator (37° C.), Renilla Glo (Promega) was added to all assay plates and chemiluminescence read using an Envision plate-reader. EC50 values were defined as the compound concentration that causes a 50% decrease in luminescence signal, and were calculated using a sigmoidal dose-response model to generate curve fits. To determine the amount of protein binding, EC50 fold shifts (or EC50 shifts) were calculated by dividing EC50 (HS/CCM)/EC50 (CCM).

HIV-1 (IIIB) = test: Antiviral assay in MT-4 cells; conditions: Human immunodeficiency virus 1, IIIB, MT4, 120 h, HIV-1 IIIB infected MT-4 cells, 5 days, Cell Titer Glo; read-out: MT4 EC50
Description: Antiviral Assay in MT-4 Cells
(§1) Compounds were tested in a high-throughput 384-well assay format for their ability to inhibit the replication of HIV-1 (IIIB) in MT-4 cells. Compounds were serially diluted (1:3) in DMSO on 384-well polypropylene plates and further diluted 200-fold into complete RPMI media (10% FBS, 1% P/S) using the Biotek Micro Flow and Labcyte ECHO acoustic dispenser. Each plate contained up to 8 test compounds, with negative (No Drug Control) and 5 μM AZT positive controls. MT-4 cells were pre-infected with 10 μL of either RPMI (mock-infected) or a fresh 1:250 dilution of HIV-1 IIIB concentrated virus stock. Infected and uninfected MT-4 cells were further diluted in complete RPMI media and added to each plate using a Micro Flow dispenser. After 5 days incubation in a humidified and temperature controlled incubator (37° C.), Cell Titer Glo (Promega) was added to the assay plates and chemiluminescence read using an Envision plate-reader. EC50 values were defined as the compound concentration that causes a 50% decrease in luminescence signal, and were calculated using a sigmoidal dose-response model to generate curve fits.

[1] = Cytotoxicity assay in MT-4 cells; conditions: human
Description: as §1, with “fits. Cytotoxicity Assay in MT-4 Cells Assays were performed as above except uninfected MT-4 cells were added to each well containing test compound. In addition, 10 μM puromycin was added to the last column of each assay plate to assess a base level of cytotoxicity.” for “fits.”

[2] = read-out: RLUC 50% HS (nM), HS/CCM: 50% human serum, 72 h, Renilla Glo
[3] = read-out: RLUC CCM (nM), cell culture media (RPMI, 10% FBS), 72 h, Renilla Glo
[4] = uninfected MT-4 cells, 5 days, Cell Titer Glo, read-out: CC50

| SMILES | EC50 (pLai RLuc reporter virus; [2]) | EC50 (pLai RLuc reporter virus; [3]) | EC50 (HIV-1 (IIIB)) | CC50 at 5 days [1, 4] | CC50 at 5 days ([1]; CC50 (nM)) |
| --- | --- | --- | --- | --- | --- |
| C[C@@H]1C[C@@H](CF)[C@H](C)N2CN1n1cc(C(=O)NCc3c(F)cc(F)cc3F)c(=O)c(O)c1C2=O [Example C57, (1S,2R,4R,5S)-4-(fluoromethyl)-8-hydroxy-2,5-dimethyl-7,9-dioxo-N-(2,4,6-trifluorobenzyl)-2,3,4,5,7,9-hexahydro-1,6-methanopyrido[1,2-b][1,2,5]triazonine-10-carboxamide] | 11.6 nM | 0.27 nM | 1.2 nM | 8930 nM |  |
| C[C@H]1[C@@H](F)C[C@H](C)N2CN1C(=O)c1c(O)c(=O)c(C(=O)NCc3ccc(F)cc3F)cn12 [Example C58, (1S,2S,4S,5S)—N-(2,4-difluorobenzyl)-4-fluoro-8-hydroxy-2,5-dimethyl-7,9-dioxo-2,3,4,5,7,9-hexahydro-1,6-methanopyrido[1,2-b][1,2,5]triazonine-10-carboxamide] | 294 nM | 0.28 nM | 1.5 nM | 11300 nM |  |
| C[C@@H]1C=C[C@@H](C)N2CN1C(=O)c1c(O)c(=O)c(C(=O)NCc3c(F)cc(F)cc3F)cn12 [Example C64, (1S,2R,5R)-8-hydroxy-2,5-dimethyl-7,9-dioxo-N-(2,4,6-trifluorobenzyl)-2,5,7,9-tetrahydro-1,6-methanopyrido[1,2-b][1,2,5]triazonine-10-carboxamide] | 150 nM | 0.27 nM | 0.8 nM | 11400 nM |  |
| C[C@@H]1CC[C@@H](C)N2CN1C(=O)c1c(O)c(=O)c(C(=O)NCc3c(F)cc(F)cc3F)cn12 [Example C65, (1S,2R,5R)-8-hydroxy-2,5-dimethyl-7,9-dioxo-N-(2,4,6-trifluorobenzyl)-2,3,4,5,7,9-hexahydro-1,6-methanopyrido[1,2-b][1,2,5]triazonine-10-carboxamide] | 63.8 nM | 0.44 nM | 1.8 nM | 15400 nM |  |
| C[C@@H]1CC[C@@H](C)N2CN1C(=O)c1c(O)c(=O)c(C(=O)NCc3ccc(F)cc3F)cn12 [Example C67, (1S,2R,5R)—N-(2,4-difluorobenzyl)-8-hydroxy-2,5-dimethyl-7,9-dioxo-2,3,4,5,7,9-hexahydro-1,6-methanopyrido[1,2-b][1,2,5]triazonine-10-carboxamide] | 35.3 nM | 0.51 nM | 1.9 nM | 25500 nM |  |
| C[C@@H]1C=CCN2CN1n1cc(C(=O)NCc3c(F)cc(F)cc3F)c(=O)c(O)c1C2=O [Example C70, (1S,2R)-8-hydroxy-2-methyl-7,9-dioxo-N-(2,4,6-trifluorobenzyl)-2,5,7,9-tetrahydro-1,6-methanopyrido[1,2-b][1,2,5]triazonine-10-carboxamide] | 11.5 nM | 0.54 nM | 1.2 nM | 11600 nM |  |
| CC[C@@H]1CC[C@H](C)N2CN1n1cc(C(=O)NCc3c(F)cc(F)cc3F)c(=O)c(O)c1C2=O [Example C73, (1S,2R,5S)-2-ethyl-8-hydroxy-5-methyl-7,9-dioxo-N-(2,4,6-trifluorobenzyl)-2,3,4,5,7,9-hexahydro-1,6-methanopyrido[1,2-b][1,2,5]triazonine-10-carboxamide] | 276 nM | 0.63 nM | 0.8 nM | 7640 nM |  |
| CC(C)[C@@H]1C=C[C@H](C)N2CN1n1cc(C(=O)NCc3c(F)cc(F)cc3F)c(=O)c(O)c1C2=O [Example C74, (1S,2R,5S)-8-hydroxy-2-isopropyl-5-methyl-7,9-dioxo-N-(2,4,6-trifluorobenzyl)-2,5,7,9-tetrahydro-1,6-methanopyrido[1,2-b][1,2,5]triazonine-10-carboxamide] | 325 nM | 0.47 nM | 0.9 nM | 6810 nM |  |
| CC(C)[C@@H]1CC[C@H](C)N2CN1n1cc(C(=O)NCc3c(F)cc(F)cc3F)c(=O)c(O)c1C2=O [Example C75, (1S,2S,5S)-8-hydroxy-2-isopropyl-5-methyl-7,9-dioxo-N-(2,4,6-trifluorobenzyl)-2,3,4,5,7,9-hexahydro-1,6-methanopyrido[1,2-b][1,2,5]triazonine-10-carboxamide] | 277 nM | 1.02 nM | 2 nM | 10900 nM |  |
| C[C@H]1CC[C@@H](CF)N2CN1C(=O)c1c(O)c(=O)c(C(=O)NCc3c(F)cc(F)cc3F)cn12 [Example C77, (1S,2S,5S)-2-(fluoromethyl)-8-hydroxy-5-methyl-7,9-dioxo-N-(2,4,6-trifluorobenzyl)-2,3,4,5,7,9-hexahydro-1,6-methanopyrido[1,2-b][1,2,5]triazonine-10-carboxamide] | 296 nM | 1.14 nM | 2 nM | 15700 nM |  |
| C[C@H]1CC[C@@H](C(F)F)N2CN1C(=O)c1c(O)c(=O)c(C(=O)NCc3ccc(F)cc3F)cn12 [Example C81, (1S,2S,5S)—N-(2,4-difluorobenzyl)-2-(difluoromethyl)-8-hydroxy-5-methyl-7,9-dioxo-2,3,4,5,7,9-hexahydro-1,6-methanopyrido[1,2-b][1,2,5]triazonine-10-carboxamide] | 723 nM | 0.48 nM | 1.5 nM | 13700 nM |  |
| COC[C@@H]1C=C[C@H](C)N2CN1n1cc(C(=O)NCc3ccc(F)cc3F)c(=O)c(O)c1C2=O [Example C82, (1S,2S,5S)—N-(2,4-difluorobenzyl)-8-hydroxy-2-(methoxymethyl)-5-methyl-7,9-dioxo-2,5,7,9-tetrahydro-1,6-methanopyrido[1,2-b][1,2,5]triazonine-10-carboxamide] | 75 nM | 0.73 nM | 1.3 nM | 16800 nM |  |
| COC[C@@H]1CC[C@H](C)N2CN1n1cc(C(=O)NCc3ccc(F)cc3F)c(=O)c(O)c1C2=O [Example C83, (1S,2S,5S)—N-(2,4-difluorobenzyl)-8-hydroxy-2-(methoxymethyl)-5-methyl-7,9-dioxo-2,3,4,5,7,9-hexahydro-1,6-methanopyrido[1,2-b][1,2,5]triazonine-10-carboxamide] | 261 nM | 1.97 nM | 3.6 nM | 30500 nM |  |
| C[C@H]1CCC2(CCOC2)N2CN1C(=O)c1c(O)c(=O)c(C(=O)NCc3c(F)cc(F)cc3F)cn12 (stereo partly drawn) [Example C86, (1′S,5′S)-8′-hydroxy-5′-methyl-7′,9′-dioxo-N-(2,4,6-trifluorobenzyl)-4,4′,5,5′,7′,9′-hexahydro-2H,3′H-spiro[furan-3,2′-[1,6]methanopyrido[1,2-b][1,2,5]triazonine]-10′-carboxamide] | 14.1 nM | 0.27 nM | 0.5 nM |  | 26000 nM |
| C[C@@H]1C=CC(C)(C)N2CN1n1cc(C(=O)NCc3ccc(F)cc3F)c(=O)c(O)c1C2=O [Example C90, (1S,2R)—N-(2,4-difluorobenzyl)-8-hydroxy-2,5,5-trimethyl-7,9-dioxo-2,5,7,9-tetrahydro-1,6-methanopyrido[1,2-b][1,2,5]triazonine-10-carboxamide] | 91.9 nM | 0.35 nM | 2 nM | 47100 nM |  |
| C[C@H]1CC[C@@H](CF)N2CN1n1cc(C(=O)NCc3ccc(F)cc3F)c(=O)c(O)c1C2=O [Example C96, (1R,2S,5S)—N-(2,4-difluorobenzyl)-5-(fluoromethyl)-8-hydroxy-2-methyl-7,9-dioxo-2,3,4,5,7,9-hexahydro-1,6-methanopyrido[1,2-b][1,2,5]triazonine-10-carboxamide] | 958 nM | 8.27 nM | 11.2 nM | 5370 nM |  |
